Data taken from ChEMBL document CHEMBL1201862, “PubChem BioAssay data set” (2004).
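Growth conditions: 96-well plates. Treatment: test compound, 48 hours, 5 concentrations. Analysis: linear interpolation between bracketing concentrations; unreached endpoints set to highest concentration. GI50 marks 50% less growth.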 The source made the active and inactive calls. Cut-off read from the data, not from the text of the source: active = GI50 up to about 1.1 µM and inactive = higher.

Tests used:
Assay in all cases: NCI-60 cell line screen, 48 h
[1] = test system: UACC-257
[2] = test system: UACC-62
[3] = test system: HCT-116
[4] = test system: 786-0
[5] = test system: CAKI-1
[6] = test system: KM12
[7] = test system: NCI-H460
[8] = test system: SK-MEL-28
[9] = test system: SK-OV-3
[10] = test system: M14
[11] = test system: HL-60
[12] = test system: OVCAR-5
[13] = test system: HCC 2998
[14] = test system: OVCAR-8
[15] = test system: NCI-H522
[16] = test system: SN12C
[17] = test system: SNB-75
[18] = test system: HCT-15
[19] = test system: MDA-N
[20] = test system: MDA-MB-435

Question: How did the GI50 [1] turn out when `c1coc(CNc2[nH]cnc3nncc2-3)c1` was run?
Answer: > 100 µM (inactive)

Question: What about the GI50 [2] of the same compound?
Answer: > 100 µM (inactive)

Question: And the GI50 [3]?
Answer: > 100 µM (inactive)

Question: And the GI50 [4]?
Answer: > 100 µM (inactive)

Question: What about the GI50 [5] of the same compound?
Answer: > 100 µM (inactive)

Question: And the GI50 [6]?
Answer: > 100 µM (inactive)

Question: And the GI50 [7]?
Answer: > 100 µM (inactive)

Question: What about the GI50 [8] of the same compound?
Answer: > 100 µM (inactive)

Question: And the GI50 [9]?
Answer: > 100 µM (inactive)

Question: What about the GI50 [10] of the same compound?
Answer: > 100 µM (inactive)

Question: What about the GI50 [11] of the same compound?
Answer: 87.9 µM (inactive)

Question: And the GI50 [12]?
Answer: > 100 µM (inactive)

Question: And the GI50 [13]?
Answer: > 100 µM (inactive)

Question: And the GI50 [14]?
Answer: > 100 µM (inactive)

Question: And the GI50 [15]?
Answer: > 100 µM (inactive)

Question: And the GI50 [16]?
Answer: > 100 µM (inactive)

Question: What about the GI50 [17] of the same compound?
Answer: 38.5 µM (inactive)

Question: What about the GI50 [18] of the same compound?
Answer: > 100 µM

Question: What does the source list for `CN(C)c1ccc(/C=N/CC2CCCN3CCCCC23)cc1` (centres undefined)?
Answer: GI50 [1]: > 100 µM (inactive); GI50 [2]: > 100 µM (inactive); GI50 [3]: > 100 µM (inactive); GI50 [19]: > 100 µM (inactive); GI50 [4]: > 100 µM (inactive); GI50 [5]: > 100 µM (inactive); GI50 [6]: > 100 µM (inactive); GI50 [7]: > 100 µM (inactive); GI50 [9]: > 100 µM (inactive); GI50 [10]: > 100 µM (inactive); GI50 [12]: > 100 µM (inactive); GI50 [13]: > 100 µM (inactive); GI50 [14]: > 100 µM (inactive); GI50 [15]: > 100 µM (inactive); GI50 [17]: > 100 µM (inactive); GI50 [18]: > 100 µM

Question: With `C[C@]12CC(c3ccccc3O1)C(C(=O)Nc1nc(C34CC5CC(CC(C5)C3)C4)cs1)C(=O)N2` (some centres undefined) as the compound, how does the GI50 [1] read?
Answer: > 100 µM (inactive)

Question: And the GI50 [2]?
Answer: > 100 µM (inactive)

Question: What about the GI50 [3] of the same compound?
Answer: 98.9 µM (inactive)

Question: What about the GI50 [4] of the same compound?
Answer: > 100 µM (inactive)

Question: And the GI50 [20]?
Answer: > 100 µM (inactive)

Question: What about the GI50 [5] of the same compound?
Answer: > 100 µM (inactive)

Question: And the GI50 [6]?
Answer: > 100 µM (inactive)

Question: And the GI50 [7]?
Answer: > 100 µM (inactive)

Question: And the GI50 [8]?
Answer: > 100 µM (inactive)

Question: And the GI50 [9]?
Answer: > 100 µM (inactive)

Question: And the GI50 [10]?
Answer: > 100 µM (inactive)

Question: What about the GI50 [11] of the same compound?
Answer: > 100 µM (inactive)

Question: What about the GI50 [12] of the same compound?
Answer: > 100 µM (inactive)

Question: And the GI50 [13]?
Answer: > 100 µM (inactive)

Question: And the GI50 [14]?
Answer: > 100 µM (inactive)

Question: What about the GI50 [16] of the same compound?
Answer: > 100 µM (inactive)

Question: And the GI50 [17]?
Answer: > 100 µM (inactive)

Question: What about the GI50 [18] of the same compound?
Answer: > 100 µM

Question: What does the source list for `COc1ccc2c(c1)CC[C@@H]1C2CC[C@]2(C)C(=C=CP(=O)(O)O)CCC12` (some centres undefined)?
Answer: GI50 [1]: > 100 µM (inactive); GI50 [2]: > 100 µM (inactive); GI50 [3]: > 100 µM (inactive); GI50 [19]: > 100 µM (inactive); GI50 [4]: > 100 µM (inactive); GI50 [20]: > 100 µM (inactive); GI50 [5]: > 100 µM (inactive); GI50 [6]: > 100 µM (inactive); GI50 [7]: > 100 µM (inactive); GI50 [8]: > 100 µM (inactive); GI50 [9]: > 100 µM (inactive); GI50 [10]: > 100 µM (inactive); GI50 [12]: > 100 µM (inactive); GI50 [13]: > 100 µM (inactive); GI50 [14]: > 100 µM (inactive); GI50 [15]: > 100 µM (inactive); GI50 [16]: > 100 µM (inactive); GI50 [17]: > 100 µM (inactive); GI50 [18]: > 100 µM

Question: Which GI50 [1] does the source give for `C#CCn1ncc2c(SC)ncnc21` here?
Answer: > 100 µM (inactive)

Question: And the GI50 [2]?
Answer: > 100 µM (inactive)

Question: What about the GI50 [3] of the same compound?
Answer: > 100 µM (inactive)

Question: And the GI50 [19]?
Answer: > 100 µM (inactive)

Question: And the GI50 [4]?
Answer: > 100 µM (inactive)

Question: What about the GI50 [20] of the same compound?
Answer: > 100 µM (inactive)

Question: What about the GI50 [5] of the same compound?
Answer: > 100 µM (inactive)

Question: What about the GI50 [6] of the same compound?
Answer: > 100 µM (inactive)

Question: What about the GI50 [7] of the same compound?
Answer: > 100 µM (inactive)

Question: And the GI50 [8]?
Answer: > 100 µM (inactive)

Question: What about the GI50 [9] of the same compound?
Answer: > 100 µM (inactive)

Question: What about the GI50 [10] of the same compound?
Answer: > 100 µM (inactive)

Question: And the GI50 [12]?
Answer: > 100 µM (inactive)

Question: And the GI50 [13]?
Answer: > 100 µM (inactive)

Question: What about the GI50 [14] of the same compound?
Answer: > 100 µM (inactive)

Question: What about the GI50 [15] of the same compound?
Answer: > 100 µM (inactive)

Question: What about the GI50 [16] of the same compound?
Answer: > 100 µM (inactive)

Question: What about the GI50 [17] of the same compound?
Answer: 33.8 µM (inactive)

Question: What about the GI50 [18] of the same compound?
Answer: > 100 µM

Question: With `O=C(Cc1ccccc1)NN1C(=O)/C(=C\c2cccc([N+](=O)[O-])c2)S/C1=N\c1ccccc1` as the compound, how does the GI50 [1] read?
Answer: > 100 µM (inactive)

Question: And the GI50 [2]?
Answer: > 100 µM (inactive)

Question: And the GI50 [3]?
Answer: > 100 µM (inactive)

Question: And the GI50 [19]?
Answer: > 100 µM (inactive)

Question: And the GI50 [4]?
Answer: > 100 µM (inactive)

Question: What about the GI50 [20] of the same compound?
Answer: > 100 µM (inactive)

Question: And the GI50 [6]?
Answer: > 100 µM (inactive)

Question: And the GI50 [7]?
Answer: > 100 µM (inactive)

Question: And the GI50 [8]?
Answer: > 100 µM (inactive)

Question: And the GI50 [9]?
Answer: > 100 µM (inactive)

Question: What about the GI50 [10] of the same compound?
Answer: > 100 µM (inactive)

Question: What about the GI50 [12] of the same compound?
Answer: > 100 µM (inactive)

Question: What about the GI50 [13] of the same compound?
Answer: > 100 µM (inactive)

Question: What about the GI50 [14] of the same compound?
Answer: > 100 µM (inactive)

Question: And the GI50 [16]?
Answer: > 100 µM (inactive)

Question: And the GI50 [17]?
Answer: > 100 µM (inactive)

Question: And the GI50 [18]?
Answer: > 100 µM

Question: For `O=C1N2CCC[C@H]2CS1(=O)=O`, which GI50 [1] is on record?
Answer: 18.7 µM (inactive)

Question: And the GI50 [2]?
Answer: 16.4 µM (inactive)

Question: And the GI50 [3]?
Answer: 12.7 µM (inactive)

Question: And the GI50 [4]?
Answer: 11.1 µM (inactive)

Question: And the GI50 [20]?
Answer: 17.1 µM (inactive)

Question: What about the GI50 [5] of the same compound?
Answer: 5.73 µM (inactive)

Question: What about the GI50 [6] of the same compound?
Answer: 16.6 µM (inactive)

Question: What about the GI50 [7] of the same compound?
Answer: 32.7 µM (inactive)

Question: And the GI50 [8]?
Answer: 18.4 µM (inactive)

Question: What about the GI50 [9] of the same compound?
Answer: 36.6 µM (inactive)

Question: What about the GI50 [10] of the same compound?
Answer: 14.6 µM (inactive)

Question: And the GI50 [11]?
Answer: 19.1 µM (inactive)

Question: What about the GI50 [12] of the same compound?
Answer: 36.9 µM (inactive)

Question: And the GI50 [13]?
Answer: 17.3 µM (inactive)

Question: What about the GI50 [14] of the same compound?
Answer: 13.6 µM (inactive)

Question: What about the GI50 [15] of the same compound?
Answer: 5.66 µM (inactive)

Question: And the GI50 [16]?
Answer: 15.7 µM (inactive)

Question: And the GI50 [17]?
Answer: 18.6 µM (inactive)

Question: And the GI50 [18]?
Answer: 12.6 µM

Question: What does the source list for `CCOc1ccc(NC(=O)CC2Sc3ccccc3NC2=O)cc1` (centres undefined)?
Answer: GI50 [1]: > 100 µM (inactive); GI50 [2]: > 100 µM (inactive); GI50 [3]: 25.2 µM (inactive); GI50 [4]: 19.2 µM (inactive); GI50 [5]: 89.9 µM (inactive); GI50 [6]: 28.3 µM (inactive); GI50 [7]: 90.2 µM (inactive); GI50 [8]: > 100 µM (inactive); GI50 [9]: 41.3 µM (inactive); GI50 [10]: > 100 µM (inactive); GI50 [11]: > 100 µM (inactive); GI50 [12]: > 100 µM (inactive); GI50 [13]: 38.2 µM (inactive); GI50 [14]: 21.1 µM (inactive); GI50 [15]: > 100 µM (inactive); GI50 [16]: > 100 µM (inactive); GI50 [17]: 31.6 µM (inactive); GI50 [18]: 56.8 µM
